The data set is described as follows: log P by HPLC on a reversed-phase column (C 18), EEC Directive 79/831 Annex V.A8. In kind it is physicochemical. The settings on record: for LOGP_NEUTRAL: pH 7.8, 0.001 molar aqueous ammonium hydrogencarbonate/acetonitrile; for chromatographic logP: reversed-phase HPLC column (C 18). As to the method:
The log P values are measured according to EEC Directive 79/831 Annex V.A8 by HPLC (high-performance liquid chromatography) on a reversed-phase column (C 18). Temperature: 55° C. The LC-MS determination in the acidic range is effected at pH 2.7 using 0.1% aqueous formic acid and acetonitrile (contains 0.1% formic acid) as eluents, linear gradient from 10% acetonitrile to 95% acetonitrile. Called log P (HCOOH) in the table. LC-MS determination in the neutral range is effected at pH 7.8 with 0.001 molar aqueous ammonium hydrogencarbonate solution and acetonitrile as eluents; linear gradient from 10% acetonitrile to 95% acetonitrile. Called log P (neutral) in the table. Calibration is effected with unbranched alkan-2-ones (having 3 to 16 carbon atoms) with known log P values (log P values determined on the basis of the retention times by linear interpolation between two successive alkanone s).

[1] abbreviates: acidic range, pH 2.7, 0.1% aqueous formic acid/acetonitrile, 55° C.
Setting [2] is: neutral range, pH 7.8, read-out: log P (neutral).

Where two headings read alike, the source gives them in different places.

Data on 33 molecules can be found in patent publication US11274097B2, “2-(het)aryl-substituted condensed bicyclic heterocycle derivatives as pest control agents” (BAYER CROPSCIENCE AKTIENGESELLSCHAFT, priority 2014, dated 2022).

For `CSc1cc(Cl)ccc1-c1nc2nc(C(F)(F)F)ncc2o1` [Example I-1], the LOGP_HCOOH under setting [1] is 3.86. In addition, the LOGP_NEUTRAL (neutral range, 55° C.) was determined as 3.77. The corresponding values for `CSc1cc(Cl)ccc1-c1nc2nc(C(F)(F)F)ncc2n1C` [Example I-6] are 2.75 and 2.74. Under setting [1], `CCS(=O)(=O)CCS(=O)(=O)c1cc(C(F)(F)F)cnc1-c1nc2cc(C(F)(F)F)ncc2n1C` [Example I-7] registered an LOGP_HCOOH of 2.72. The same molecule registered an LOGP_NEUTRAL (neutral range, 55° C.) of 2.67. For `CC(C)[S+]([O-])c1cc(C(F)(F)F)cnc1-c1nc2cc(C(F)(F)F)ncc2n1C` (stereo not shown) [Example I-8], the LOGP_HCOOH under setting [1] turned out to be 3.54. For the setting “neutral range, 55° C.”, this molecule had an LOGP_NEUTRAL of 3.46. `CCSc1ccccc1-c1nc2nc(C(F)(F)F)ncc2o1` [Example I-9] yielded an LOGP_HCOOH under setting [1] of 3.66. The molecule further displayed an LOGP_NEUTRAL (neutral range, 55° C.) of 3.64. The corresponding values for `CCS(=O)(=O)c1cccnc1-c1nc2cc(C(F)(F)F)ncc2n1C` [Example I-15] are 1.95 and 1.92. Regarding `CC(C)S(=O)(=O)c1cc(C(F)(F)F)cnc1-c1nc2cc(C(F)(F)F)ncc2n1C` [Example I-16], under setting [1], the LOGP_HCOOH came out at 3.26. Under “neutral range, 55° C.”, this molecule came in with an LOGP_NEUTRAL of 3.21.

As for `Cn1c(-c2ccc(F)cc2S(C)(=O)=O)nc2cc(C(F)(F)F)ncc21` [Example I-20], the LOGP_HCOOH under setting [1] was 2.08. In addition, for the setting “neutral range, 55° C.”, the LOGP_NEUTRAL was found to be 2.05. For `Cn1c(-c2ccccc2S(=O)(=O)C2COC2)nc2cc(C(F)(F)F)ncc21` [Example I-27] the same measures were 1.87 and 1.84.

For the molecule `CCCS(=O)(=O)c1cc(C(F)(F)F)cnc1-c1nc2cc(C(F)(F)F)ncc2n1C` [Example I-32], the LOGP_HCOOH under setting [1] is reported as 3.37. This molecule gave an LOGP_NEUTRAL (neutral range, 55° C.) of 3.32.

In the case of `CC[S+]([O-])c1cccnc1-c1nc2cc(C(F)(F)F)ncc2n1C` (stereo not shown) [Example I-33], under setting [1], the LOGP_HCOOH came out at 2.12. The molecule also gave an LOGP_NEUTRAL (neutral range, 55° C.) of 2.11. Molecule `CSc1cc(Cl)ccc1-c1nc2cc(C(F)(F)F)ncc2o1` [Example I-34] returned an LOGP_HCOOH under setting [1] of 4.38. The same molecule yielded an LOGP_NEUTRAL (neutral range, 55° C.) of 4.41. Take `CCSc1ccccc1-c1nc2cc(C(F)(F)F)ncc2o1` [Example I-35, 2-[2-(Ethylsulphanyl)phenyl]-6-(trifluoromethyl)[1,3]oxazolo[5,4-c]pyridine]: the LOGP_HCOOH under setting [1] is 4.03. This molecule also registered an LOGP_NEUTRAL (neutral range, 55° C.) of 4.07. Besides, the chromatographic logP under setting [2] turned out to be 4.07.

`FC(F)(F)c1cc2nc(-c3ccccc3SC3COC3)oc2cn1` [Example I-40] came in with an LOGP_HCOOH under setting [1] of 3.15. The same molecule had an LOGP_NEUTRAL (neutral range, 55° C.) of 3.10. In turn, `Cn1c(-c2ncc(C(F)(F)F)cc2S(=O)(=O)CCF)nc2cc(C(F)(F)F)ncc21` [Example I-57] had an LOGP_HCOOH under setting [1] of 2.89. For the same molecule, the LOGP_NEUTRAL (neutral range, 55° C.) worked out at 2.82. Consider `Cn1c(-c2ncc(C(F)(F)F)cc2S(=O)(=O)CCO)nc2cc(C(F)(F)F)ncc21` [Example I-58], for which the LOGP_NEUTRAL (neutral range, 55° C.) is given as 2.19.

Under setting [1], `Cn1c(-c2ncc(C(F)(F)F)cc2SCCO)nc2cc(C(F)(F)F)ncc21` [Example I-59] gave an LOGP_HCOOH of 2.41. Where the note is “neutral range, 55° C.”, this molecule came in with an LOGP_NEUTRAL of 2.31. Under setting [1], `CCSc1cc(C(N)=O)cnc1-c1nc2cc(C(F)(F)F)ncc2n1C` [Example I-60] yielded an LOGP_HCOOH of 1.77. Besides, the LOGP_NEUTRAL (neutral range, 55° C.) was 1.76. For `CCS(=O)(=O)c1c(Cl)cccc1-c1nc2cc(C(F)(F)F)ncc2n1C` [Example I-62] the same measures were 2.17 and 2.15. Under setting [1], `CCSc1cc(C(F)(F)F)cnc1-c1nc2cc(-c3ccc(C(F)(F)F)cc3)ncc2n1C` [Example I-64, 2-[3-ethylsulphanyl-5-(trifluoromethyl)-2-pyridyl]-3-methyl-6-[4-(trifluoromethyl)-phenyl]imidazo[4,5-c]pyridine] showed an LOGP_HCOOH of 3.93. The same molecule displayed an LOGP_NEUTRAL (neutral range, 55° C.) of 3.95. Moreover, the chromatographic logP under setting [2] came to 3.95. Take `CCSc1cc(C(F)(F)F)cnc1-c1nc2cc(-n3cc(C(F)(F)F)cn3)ncc2n1C` [Example I-65]: the LOGP_HCOOH under setting [1] is recorded as 4.37. Further, the LOGP_NEUTRAL (neutral range, 55° C.) is given as 4.31. The corresponding values for `CCCSc1ccc(OC)nc1-c1nc2cc(C(F)(F)F)ncc2n1C` [Example I-66] are 3.50 and 3.42.

Regarding `COc1ccc(SC)c(-c2nc3cc(C(F)(F)F)ncc3n2C)n1` [Example I-67], under setting [1], the LOGP_HCOOH is 2.75. The LOGP_NEUTRAL (neutral range, 55° C.) came to 2.70. For `CCSc1cc(C(F)(F)F)cnc1-c1nc2cc(-n3ccc(C(F)(F)F)n3)ncc2n1C` [Example I-69] the same measures were 4.37 and 4.32. Regarding `CCCS(=O)(=O)c1ccc(OC)nc1-c1nc2cc(C(F)(F)F)ncc2n1C` [Example I-71], the LOGP_HCOOH under setting [1] is reported as 2.93. In turn, `CCS(=O)(=O)c1cc(C#N)cnc1-c1nc2cc(C(F)(F)F)ncc2n1C` [Example I-72] returned an LOGP_HCOOH under setting [1] of 2.32. In addition, the LOGP_NEUTRAL (neutral range, 55° C.) came to 2.26. In turn, `CCSc1cc(C(F)(F)F)cnc1-c1nc2cc(-n3cnc(C(F)(F)F)c3)ncc2n1C` [Example I-74, 2-[3-ethylsulphanyl-5-(trifluoromethyl)-2-pyridyl]-3-methyl-6-[4-(trifluoromethyl)-imidazol-1-yl]imidazo[4,5-c]pyridine] displayed an LOGP_NEUTRAL (neutral range, 55° C.) of 3.36. The chromatographic logP stood at 3.49 (acidic range, pH 2.7, 0.1% aqueous formic acid/acetonitrile, 55° C., read-out: LOGP_HCOOH) and 3.36 under setting [2]. Turning to `CCS(=O)(=O)c1cc(C(F)(F)F)cnc1-c1nc2cc(-n3cnc(C(F)(F)F)c3)ncc2n1C` [Example I-75], the LOGP_HCOOH under setting [1] is listed as 2.94. In addition, under “neutral range, 55° C.”, the LOGP_NEUTRAL was 2.84.

Molecule `CCS(=O)(=O)c1cc(C(F)(F)F)cnc1-c1nc2cc(-n3cc(C(F)(F)F)cn3)ncc2n1C` [Example I-76] returned an LOGP_HCOOH under setting [1] of 3.84. Where the note is “neutral range, 55° C.”, this molecule registered an LOGP_NEUTRAL of 3.73. With `CCS(=O)(=O)c1cc(C(F)(F)F)cnc1-c1nc2cc(-n3ccc(C(F)(F)F)n3)ncc2n1C` [Example I-77], the LOGP_HCOOH under setting [1] was 3.90. The LOGP_NEUTRAL (neutral range, 55° C.) came out at 3.81.

Take `Cn1c(-c2ncc(C(F)(F)F)cc2Cl)nc2cc(C(F)(F)F)ncc21` [IX-01, 2-[3-chloro-5-(trifluoromethyl)pyridin-2-yl]-3-methyl-6-(trifluoromethyl)-3H-imidazo[4,5-c]pyridine]: the chromatographic logP under setting [2] was 2.96.

Regarding `CNc1cnc(C(F)(F)F)cc1NC(=O)c1ncc(C(F)(F)F)cc1Cl` [VIII-01, 3-chloro-N-[5-(methylamino)-2-(trifluoromethyl)pyridin-4-yl]-5-(trifluoromethyl)pyridine-2-carboxamide], under setting [2], the chromatographic logP is 3.09. With `CCSc1ccccc1C(=O)Nc1cc(C(F)(F)F)ncc1O` [VIII-02, 2-(ethylsulphanyl)-N-[5-hydroxy-2-(trifluoromethyl)pyridin-4-yl]benzamide], the chromatographic logP under setting [2] amounted to 1.59.
